Publication PMC7402526, “An in vitro quantitative systems pharmacology approach for deconvolving mechanisms of drug-induced, multilineage cytopenias” (PLoS Computational Biology, 2020)

Legend:
[1] = system: hematopoietic stem cells (HSCs); experiment: Multi-lineage toxicity assay (MLTA), HSCs: concentration-response and QSP model fit; type: cell-based, human; conditions: Homo sapiens, Hematopoietic stem cell, 144 h
In short: (§1)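 Parameters come from fitting an Emax-based QSP model, with L1 regularization and Emax ranging 0–2, to vehicle-normalized, bead-corrected flow cytometry counts. Counts came from human bone marrow CD34+ cells treated from day 0 through a 6-day multi-lineage cytokine culture in SFEM II, using 2–7 donors per drug.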

[2] = system: multi-potent progenitors (MPPs); experiment: MLTA, MPPs: concentration-response and QSP model fit; type: cell-based, human; conditions: Homo sapiens, 144 h
In short: as §1

[3] = system: granulocyte progenitor (Gran-lin prog); experiment: MLTA, GranP: concentration-response and QSP model fit; type: cell-based, human; conditions: Homo sapiens, 144 h
In short: (§2)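 Drug was added at time 0 to thawed human bone marrow CD34+ cells in SFEM II plus a cytokine cocktail. After 6 days at 37°C, subsets were counted by surface-marker flow with TruCount beads. Vehicle-normalized, donor-pooled data then fed an Emax model separating anti-proliferative from cell-killing effects.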

[4] = system: neutrophils (neutrophil-lin); experiment: MLTA, Neut: concentration-response and QSP model fit; type: cell-based, human; conditions: Homo sapiens, Neutrophil, 144 h
In short: as §1

[5] = system: early erythroid cells (Eryth I); experiment: MLTA, ErythI: concentration-response and QSP model fit; type: cell-based, human; conditions: Homo sapiens, 144 h
In short: as §2

[6] = system: late erythroid cells (Eryth II); experiment: MLTA, ErythII: concentration-response and QSP model fit; type: cell-based, human; conditions: Homo sapiens, 144 h
In short: as §1

[7] = system: total viable cells (totalViableCells); experiment: MLTA, total live cells concentration-response; type: cell-based; conditions: Homo sapiens, 144 h, 6 days, normalized to vehicle control, read-out: total_live normalized cell count
In short: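 Freeze-thawed primary human bone marrow CD34+ cells in SFEM II with cytokine cocktail, drug added day 0, 6 days at 37°C, 5% CO2. Live/dead counts by 17-parameter flow cytometry with DAPI exclusion, bead-normalized, volume-corrected to cells/mL. Normalized per donor to mean of six vehicle wells; 2–7 donors pooled.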

## O=C1CCC(N2C(=O)c3ccccc3C2=O)C(=O)N1 (stereo not shown) [thalidomide]
[1]; dose 0.2 nM, 6 days, normalized to vehicle control, read-out: HSCs normalized cell count
  activity at 0.0002 µM: 67.6%
[1]; dose 1 nM, 6 days, normalized to vehicle control, read-out: HSCs normalized cell count
  activity at 0.001 µM: 92.6%
[1]; dose 5 nM, 6 days, normalized to vehicle control, read-out: HSCs normalized cell count
  activity at 0.005 µM: 109%
[1]; dose 25 nM, 6 days, normalized to vehicle control, read-out: HSCs normalized cell count
  activity at 0.025 µM: 96.3%
[1]; dose 100 nM, 6 days, normalized to vehicle control, read-out: HSCs normalized cell count
  activity at 0.1 µM: 84.9%
[1]; dose 500 nM, 6 days, normalized to vehicle control, read-out: HSCs normalized cell count
  activity at 0.5 µM: 99.8%
[1]; dose 2500 nM, 6 days, normalized to vehicle control, read-out: HSCs normalized cell count
  activity at 2.5 µM: 113%
[1]; parameter from QSP model fitting, read-out: Emax_drug_HSC
  Emax: 0.000374%
[2]; dose 0.2 nM, 6 days, normalized to vehicle control, read-out: MPPs normalized cell count
  activity at 0.0002 µM: 91.8%
[2]; dose 1 nM, 6 days, normalized to vehicle control, read-out: MPPs normalized cell count
  activity at 0.001 µM: 75.9%
[2]; dose 5 nM, 6 days, normalized to vehicle control, read-out: MPPs normalized cell count
  activity at 0.005 µM: 79%
[2]; dose 25 nM, 6 days, normalized to vehicle control, read-out: MPPs normalized cell count
  activity at 0.025 µM: 87.5%
[2]; dose 100 nM, 6 days, normalized to vehicle control, read-out: MPPs normalized cell count
  activity at 0.1 µM: 76.7%
[2]; dose 500 nM, 6 days, normalized to vehicle control, read-out: MPPs normalized cell count
  activity at 0.5 µM: 78.1%
[2]; dose 2500 nM, 6 days, normalized to vehicle control, read-out: MPPs normalized cell count
  activity at 2.5 µM: 91.5%
[2]; parameter from QSP model fitting, read-out: Emax_drug_MPP
  Emax: 0.00111%
[3]; dose 0.2 nM, 6 days, normalized to vehicle control, read-out: GranPs normalized cell count
  activity at 0.0002 µM: 80.9%
[3]; dose 1 nM, 6 days, normalized to vehicle control, read-out: GranPs normalized cell count
  activity at 0.001 µM: 97.2%
[3]; dose 5 nM, 6 days, normalized to vehicle control, read-out: GranPs normalized cell count
  activity at 0.005 µM: 114%
[3]; dose 25 nM, 6 days, normalized to vehicle control, read-out: GranPs normalized cell count
  activity at 0.025 µM: 130%
[3]; dose 100 nM, 6 days, normalized to vehicle control, read-out: GranPs normalized cell count
  activity at 0.1 µM: 99%
[3]; dose 500 nM, 6 days, normalized to vehicle control, read-out: GranPs normalized cell count
  activity at 0.5 µM: 94.5%
[3]; dose 2500 nM, 6 days, normalized to vehicle control, read-out: GranPs normalized cell count
  activity at 2.5 µM: 109%
[3]; parameter from QSP model fitting, read-out: Emax_drug_GranP
  Emax: 0.0121%
[4]; dose 0.2 nM, 6 days, normalized to vehicle control, read-out: Neut normalized cell count
  activity at 0.0002 µM: 99.5%
[4]; dose 1 nM, 6 days, normalized to vehicle control, read-out: Neut normalized cell count
  activity at 0.001 µM: 79.1%
[4]; dose 5 nM, 6 days, normalized to vehicle control, read-out: Neut normalized cell count
  activity at 0.005 µM: 88.2%
[4]; dose 25 nM, 6 days, normalized to vehicle control, read-out: Neut normalized cell count
  activity at 0.025 µM: 94.5%
[4]; dose 100 nM, 6 days, normalized to vehicle control, read-out: Neut normalized cell count
  activity at 0.1 µM: 62.4%
[4]; dose 500 nM, 6 days, normalized to vehicle control, read-out: Neut normalized cell count
  activity at 0.5 µM: 69%
[4]; dose 2500 nM, 6 days, normalized to vehicle control, read-out: Neut normalized cell count
  activity at 2.5 µM: 96.9%
[4]; parameter from QSP model fitting, read-out: Emax_drug_Neut
  Emax: 1.13%
[5]; dose 0.2 nM, 6 days, normalized to vehicle control, read-out: ErythI normalized cell count
  activity at 0.0002 µM: 101%
[5]; dose 1 nM, 6 days, normalized to vehicle control, read-out: ErythI normalized cell count
  activity at 0.001 µM: 120%
[5]; dose 5 nM, 6 days, normalized to vehicle control, read-out: ErythI normalized cell count
  activity at 0.005 µM: 124%
[5]; dose 25 nM, 6 days, normalized to vehicle control, read-out: ErythI normalized cell count
  activity at 0.025 µM: 122%
[5]; dose 100 nM, 6 days, normalized to vehicle control, read-out: ErythI normalized cell count
  activity at 0.1 µM: 137%
[5]; dose 500 nM, 6 days, normalized to vehicle control, read-out: ErythI normalized cell count
  activity at 0.5 µM: 114%
[5]; dose 2500 nM, 6 days, normalized to vehicle control, read-out: ErythI normalized cell count
  activity at 2.5 µM: 136%
[5]; parameter from QSP model fitting, read-out: Emax_drug_ErythroidI
  Emax: 0.00343%
[6]; dose 0.2 nM, 6 days, normalized to vehicle control, read-out: ErythII normalized cell count
  activity at 0.0002 µM: 94.3%
[6]; dose 1 nM, 6 days, normalized to vehicle control, read-out: ErythII normalized cell count
  activity at 0.001 µM: 99.8%
[6]; dose 5 nM, 6 days, normalized to vehicle control, read-out: ErythII normalized cell count
  activity at 0.005 µM: 105%
[6]; dose 25 nM, 6 days, normalized to vehicle control, read-out: ErythII normalized cell count
  activity at 0.025 µM: 111%
[6]; dose 100 nM, 6 days, normalized to vehicle control, read-out: ErythII normalized cell count
  activity at 0.1 µM: 77.8%
[6]; dose 500 nM, 6 days, normalized to vehicle control, read-out: ErythII normalized cell count
  activity at 0.5 µM: 87.5%
[6]; dose 2500 nM, 6 days, normalized to vehicle control, read-out: ErythII normalized cell count
  activity at 2.5 µM: 93.7%
[6]; parameter from QSP model fitting, read-out: Emax_drug_ErythroidII
  Emax: 0.00351%
[7]; dose 0.2 nM
  viability at 0.0002 µM: 90.8%
[7]; dose 1 nM
  viability at 0.001 µM: 99.8%
[7]; dose 5 nM
  viability at 0.005 µM: 108%
[7]; dose 25 nM
  viability at 0.025 µM: 116%
[7]; dose 100 nM
  viability at 0.1 µM: 93.1%
[7]; dose 500 nM
  viability at 0.5 µM: 91.7%
[7]; dose 2500 nM
  viability at 2.5 µM: 104%
